This note sets out measurements from US6534278B1, “Screening for antibiotics” (priority 1997, dated 2003).

Experiment [1] concerns E. coli strain D22 carrying plasmid pNU305 (ampC and ampR genes from Citrobacter freundii, envA-). The experiment is described as follows: β-lactamase induction screen (nitrocefin, OD 490 nm). The format is cell-based. The settings on record: for [Induction] (limit of detection of β-lactamase induction): lowest concentration at which β-lactamase induction begins to increase, average over trials. As to the method:
Screening Strain: E. coli strain D22 carrying plasmid pNU305 which contains the ampC and ampR genes from Citrobacter freundii, the envA-allele, a colEI origin of replication, and a tetracycline resistance determinant was grown in Luria Broth (LB; 5 g yeast extract, 10 g tryptone, and 10 g sodium chloride per liter of purified water) supplemented with E salts (400 μl E salts per 100 ml LB; the E salts contained-10 g magnesium sulfate heptahydrate, 100 g citric acidmonohydrate, 500 g anhydrous dibasic potassium phosphate, and 175 g of monosodium monoammonium phosphate tetrahydrate per liter of purified water).
Reaction Buffer: Nitrocefin was dissolved in dimethylsulfoxide (DMSO) to a concentration of 25 mg/ml and stored in 1 ml aliquots at −80° C. To prepare a reaction buffer, one of the nitrocefin/DMSO aliquots was added to 50 ml Z buffer with detergents (16.1 g dibasic sodium phosphate heptahydrate, 5.5 g monobasic sodium phosphate monohydrate, 0.75 g potassium chloride, 246 mg magnesium sulfate heptahydrate, 200 mg CTAB, and 100 mg sodium deoxycholate per liter, with the pH adjusted to 7.0) and the mixture was vortexed vigorously. The resulting suspension was filtered through Q5 filter paper (Fisher, Cat. No. 09-790-2e) to remove insoluble material. The filtered reaction buffer was stored at −80° C. until it was needed.
Growth Regimen: A single colony of the E. coli (i.e., a starter colony) was streaked onto an LB plate (with tetracycline) and incubated overnight at 37° C. Cells from the starter colony were then used to inoculate multiple colonies in LB (without tetracycline) to give a cell density no higher than 0.05 OD at 650 nm. The cells were grown at 37° C. under aerating conditions (i.e., shaken at 200 rpm in Erlenmeyer flasks having a volume of at least 10 times that of the culture.
Screening: When the cells had grown to a cell density of 0.25 to 0.8 OD at 650 nm, the culture was diluted to 0.25 OD. 80 μl of the diluted culture was added to each well of a microtiter plate containing 20 μl samples from a simulated natural product library, using an automated liquid dispensing robot from Titrtek (Huntsville, Ala.).
A positive control compound (25 μg/ml fosfomycin) was added to some of the wells and other wells were left untreated, as negative control samples. The samples were incubated on the plate for one hour at 37° C. without shaking.
Assay: 10 μl aliquots were transferred from each well to a second microtiter plate, using a Quadra 96 Model 320 robot (TomTec, Hamden, Conn.). 90 μl of the reaction buffer prepared above was added to each well using a automated liquiddispensing robot (Titrtek, Huntsville, Ala.). The OD of the samples was immediately read at […] in a plate reader (Biorad, Model 3550) to obtain zero point β-lactamase levels. The OD was measured again after incubating the plates at room temperature for 90 minutes (room temperature near 30° C.) or 120 minutes (room temperature below 30° C.).
Data Analysis: An induction value, I, was determined for each sample according to the following formula: I=(OD of sample—median OD)/(OD of induced cells—median OD); where the median OD was determined for each plate and the OD of induced cells was defined as the average of the readings from the control wells exposed to the 25 μg/ml fosfomycin. […] Any sample having I≧0.2 was considered to be positive. Since the assay is calorimetric, the zero-point levels were subtracted from the OD readings.
The same mixtures were also screened for increased β-lactamase using the new methods. The β-lactamase produced was plotted against the logarithm of ramoplanin concentration. FIGS. 3A and 3B show two examples of such. plots. As shown by the leftmost 6 and 7 solid black circles in FIGS. 3A and 3B, respectively, these plots show no effect of low concentrations of added ramoplanin on β-lactamase induction, up to a ramoplanin concentration of about 0.8 to 1.6 μg/ml. At this level, the β-lactamase induction level began to increase. […]

The subject of experiment [2] is envA-cells containing the pNU305 plasmid. The experiment is described as follows: microbe, parasite or virus in culture. As to the method:
The optical density (OD) of each reaction mixture was measured at 655 nm. The lowest concentration of ramoplanin for which the OD reading was zero was taken to be the MIC.

Setting [3] is: lowest concentration with OD 655 nm of zero, 5×10^5 cells/ml, 18 hours, 37° C.

≈ marks a conversion by molar mass, not a printed value. Where a SMILES comes first, the peptide text is derived from it. Bridges are numbered along the chain shown (N, C = ends). [ ]: non-standard residue; d: D form. The star is where a group is joined. Ileψ(thiazoline)Cys = CC[C@H](C)[C@H](N)C1=N[C@H](C(=O)*)CS1; dOrn = NCCC[C@@H](N)C(=O)O; Dab = NCC[C@H](N)C(=O)O Some results are limits rather than exact numbers.

As to `N[C@@H]1CON=C1O` [Cycloserine], the “[Induction] (limit of detection of β-lactamase induction)” value in experiment [1] is 20 µg/mL. In experiment [2] (Escherichia coli, 18 h), this compound yielded an MIC of 12.5 µg/mL (≈ 122 µM).
In the case of Moenomycin, the “[Induction] (limit of detection of β-lactamase induction)” value in experiment [1] was determined as 1 µg/mL. In experiment [2] (setting [3]), this compound gave an MIC of 2 µg/mL.
On to `CCCCCCCCCCCCOS(=O)(=O)[O-].[Na+]` [Sodium dodecyl sulfate], for which the “[Induction] (limit of detection of β-lactamase induction)” value in experiment [1] was 4 µg/mL. This compound had an MIC in experiment [2] (Escherichia coli, 18 h) of 2 µg/mL.
With `CC[C@H](C)[C@H](N)C1=N[C@H](C(=O)N[C@@H](CC(C)C)C(=O)N[C@H](CCC(=O)O)C(=O)N[C@H](C(=O)N[C@H]2CCCCNC(=O)[C@H](CC(N)=O)NC(=O)[C@@H](CC(=O)O)NC(=O)[C@H](Cc3cnc[nH]3)NC(=O)[C@@H](Cc3ccccc3)NC(=O)[C@H]([C@@H](C)CC)NC(=O)[C@@H](CCCN)NC2=O)[C@@H](C)CC)CS1` [Bacitracin] ({Ileψ(thiazoline)Cys}-L[dE]IK[dOrn]I[dF]H[dD]N; lactam 4-C), the “[Induction] (limit of detection of β-lactamase induction)” value in experiment [1] amounted to 1.6 µg/mL. The MIC in experiment [2] (setting [3]) is 12.5 µg/mL (≈ 8.79 µM).
As to Ramoplanin, the “detection concentration times less than the minimum inhibitory concentration (MIC / limit of detection)” value in experiment [1] (20/1.8) is given as “about 11 times”. The “[Induction] (limit of detection of β-lactamase induction)” value was 1.8 µg/mL in experiment [1] and “about 1.8 μg/ml” in experiment [1] (listed as ramoplanin). In addition, the MIC in experiment [2] (setting [3]) is 20 µg/mL; in experiment [2] (lowest concentration with OD 655 nm of zero, 5×10^5 cells/ml, 18 hours, 37° C., listed as ramoplanin), “about 20 μg/ml”.
Consider `CO[C@@]1(NC(=O)Cc2cccs2)C(=O)N2C(C(=O)O)=C(COC(N)=O)CS[C@@H]21` [Cefoxitin], for which, in experiment [1], the “[Induction] (limit of detection of β-lactamase induction)” value turned out to be 2.5 µg/mL. The compound also showed an MIC in experiment [2] (Escherichia coli, 18 h) of 7 µg/mL (≈ 16.4 µM).
The matching figures for `CN[C@H](CC(C)C)C(=O)N[C@H]1C(=O)N[C@@H](CC(N)=O)C(=O)N[C@H]2C(=O)N[C@H]3C(=O)N[C@H](C(=O)N[C@H](C(=O)O)c4cc(O)cc(O)c4-c4cc3ccc4O)[C@H](O)c3ccc(c(Cl)c3)Oc3cc2cc(c3O[C@@H]2O[C@H](CO)[C@@H](O)[C@H](O)[C@H]2O[C@H]2C[C@](C)(N)[C@H](O)[C@H](C)O2)Oc2ccc(cc2Cl)[C@H]1O` [Vancomycin]: 4 µg/mL and 10 µg/mL (≈ 6.9 µM).
Regarding `CC(C)C[C@@H]1NC(=O)[C@@H](Cc2ccccc2)NC(=O)[C@H](CCN)NC(=O)[C@@H](NC(=O)[C@H](CCN)NC(=O)[C@@H](N)[C@@H](C)O)CCNC(=O)[C@H]([C@@H](C)O)NC(=O)[C@H](CCN)NC(=O)[C@H](CCN)NC1=O` [Polymyxin B nonapeptide] (H-T[Dab][Dab][Dab][dF]L[Dab][Dab]T; lactam 3-C; N-terminus assumed), the “[Induction] (limit of detection of β-lactamase induction)” value in experiment [1] turned out to be 6.3 µg/mL. Besides, the MIC in experiment [2] (setting [3]) was more than 100 µg/mL.
As for `CC[C@@]1([C@@H]2O[C@@H]([C@H]3O[C@@](O)(CO)[C@H](C)C[C@@H]3C)C[C@@H]2C)CC[C@H]([C@]2(C)CC[C@]3(C[C@H](O)[C@@H](C)[C@@H]([C@@H](C)[C@@H](OC)[C@H](C)C(=O)O)O3)O2)O1` [Monensin], the “[Induction] (limit of detection of β-lactamase induction)” value in experiment [1] is “none”. This compound also returned an MIC in experiment [2] (Escherichia coli, 18 h) of more than 100 µg/mL.
For `O=C(O)c1cn(C2CC2)c2cc(N3CCNCC3)c(F)cc2c1=O` [Ciprofloxacin] the same measures were “none” and 0.01 µg/mL (≈ 0.0302 µM).
Turning to Triton X-100, the “[Induction] (limit of detection of β-lactamase induction)” value in experiment [1] amounted to 100 µg/mL. Besides, in experiment [2] (setting [3]), the MIC was 500 µg/mL.
For `CC[C@H]1OC(=O)[C@H](C)[C@@H](O[C@H]2C[C@@](C)(OC)[C@@H](O)[C@H](C)O2)[C@H](C)[C@@H](O[C@@H]2O[C@H](C)C[C@H](N(C)C)[C@H]2O)[C@](C)(O)C[C@@H](C)C(=O)[C@H](C)[C@@H](O)[C@]1(C)O` [Erythromycin], the “[Induction] (limit of detection of β-lactamase induction)” value in experiment [1] is given as “none”. In experiment [2] (Escherichia coli, 18 h), this compound returned an MIC of 0.8 µg/mL (≈ 1.09 µM).
For the compound Polymyxin B sulfate, the “[Induction] (limit of detection of β-lactamase induction)” value in experiment [1] stood at 0.2 µg/mL. The same compound had an MIC in experiment [2] (setting [3]) of 0.4 µg/mL.
Regarding `C[C@@H]1O[C@@H]1P(=O)(O)O` [Fosfomycin], the “[Induction] (limit of detection of β-lactamase induction)” value in experiment [1] was 0.7 µg/mL. This compound returned an MIC in experiment [2] (Escherichia coli, 18 h) of 0.7 µg/mL (≈ 5.07 µM).
`CO[C@H]1/C=C/O[C@@]2(C)Oc3c(C)c(O)c4c(O)c(c(/C=N/N5CCN(C)CC5)c(O)c4c3C2=O)NC(=O)/C(C)=C\C=C\[C@H](C)[C@H](O)[C@@H](C)[C@@H](O)[C@@H](C)[C@H](OC(C)=O)[C@@H]1C` [Rifampicin] gave an MIC in experiment [2] (Escherichia coli, 18 h) of 0.06 µg/mL (≈ 0.0729 µM).
